# Data as given in patent US20150216921A1, “BASE POWDER FROM THE RED RASPBERRY RUBUS IDAEUS AND ACTIVATED MICRONIZED ZEOLITE FOR ATTENUATING NICOTINE ADDICTION, METHOD FOR THE PREPARATION THEREOF AND USE THEREOF” (University fo Hidalgo, priority 2011, published 2015).
# Columns and labels:
# [1] = tested on: tumorigenicity of the nitrosamine NNK; settings: dose of 4g/kg; cited from earlier work
# [2] = tested on: anxiety caused by nicotine withdraw syndrome; test: High-cross test, anxiety caused by nicotine withdraw syndrome; assay type: in vivo; settings: mice, nicotine for 14 consecutive days then suspended
# From the text: (§1) 7. Using raspberry powder and pure ellagic acid (Sigma Aldrich) two experiments in mice were developed, one was to evaluate the effect of those in the anxiety caused by nicotine withdraw syndrome; and the other was to evaluate the nicotine addiction. Based on the process mentioned in the Mexican Institute of Industrial Property in patent application number Mx/a/2010/000827 record dated 21/ENE/2010, folio MX/E/2010/004489. In the first case the high-cross test was used and in the second test site selectivity paradigm. Nicotine was administered to mice for 14 consecutive days and when it was suspended, anxiety was developed.
# [3] = tested on: lung tumorogenesis of benzo [a] pyrene; settings: cited from earlier work
# nicotine addiction = test: Site selectivity paradigm, nicotine addiction; assay type: in vivo; settings: mice conditioned by nicotine
# From the text: as §1
# smoking = test: Smoking cessation and follow-up by telephone; assay type: in vivo, humans
# From the text: (§2) 9. Treatment 1:—Two persons, a person and a person […], used ZAM ® (activated and micronized zeolite) at doses of 5 g daily during 14 days.
# (§3) 10. Treatment 2:—Two persons, a person and a person […], used the raspberry powder recorded in January 2010 in the Mexican Institute of Industrial Property (patent application number record Mx/ a/2010/ 000827, at folio MX/E/2010/004489). At a dose of 5 g per day during 14 days.
# (§4) 11. Treatment 3: A person, a person used a commercial product of raspberry, with similar characteristics to the raspberry powder, mentioned in the previous section, in combination with ZAM® (activated and micronized zeolite) at dose of 5 g per day.
# (§5) 12. Treatment 4: Two persons, a person and a person, used raspberry powder registered in the patent application number Mx/a/2010/000827, folio MX/E/2010/004489) in combination with ZAM® (micronized and activated zeolite) in a dose of 7 g per day during 14 days.
# (§6) 13. Treatment 5:—A person used varenicline, commercial brand, at dose of 1 mg twice daily during 7 days, then 0.5 mg daily for the next 3 days; continuing with 0.5 mg twice a day during 4 days, and finally 1 mg during 1 day, every 12 h. This cycle was repeated 12 weeks. Treatment 5.
# [4] = tested on: anxiety (withdrawal syndrome); test: Hamilton Anxiety Scale in persons quitting smoking; assay type: in vivo, humans; settings: one person, 12 weeks treatment
# From the text: as §2, §3, §4, §5
# 13. […]
# 14. Anxiety was assessed by the Hamilton Anxiety Scale (Hamilton, 1969; Bulbena, 2000; APA, 2000) and the degree of nicotine dependence with Fagerstrom test (1991). […]
# 16. 14 scale items were evaluated, 13 related to anxiety symptoms and signs, and the last item values the patient's behavior during the assessment interview. […]
# 17. The physician scored from 0 to 4 points each item, assessing both the intensity and the frequency of it. […]
# [5] = tested on: physical dependence on nicotine; test: Fagerstrom test, degree of nicotine dependence; assay type: in vivo, humans; settings: persons quitting smoking, at end of treatment
# From the text: as §2, §3, §4, §5, §6
# 14. Anxiety was assessed by the Hamilton Anxiety Scale (Hamilton, 1969; Bulbena, 2000; APA, 2000) and the degree of nicotine dependence with Fagerstrom test (1991).
# 25. […]
SMILES,inhibition of tumor multiplicity [1],signs related to anxiety caused by the refraining from exposure to nicotine [2],effect against tumorogenesis in lung of benzo [a] pyrene ([3]; intra peritoneal injection),inhibition in the lung tumorogenesis of benzo [a] pyrene ([3]; mice feed by EA at a dose of 400 mg/kg),nicotine-conditioned behavior (nicotine addiction),"relapse a month after the treatment (smoking; monitoring by telephone, 1 month after treatment ends)","smoking cessation during treatment period (smoking; persons, during treatment / proposed period)","Hamilton Anxiety Scale, anxiety during the first month of treatment [4]","Hamilton Anxiety Scale, anxiety during the second and third month [4]","Fagerstrom test, physical dependence after treatment [5]"
"O=c1oc2c(O)c(O)cc3c(=O)oc4c(O)c(O)cc1c4c23 [ellagic acid, 2,3,7, 8—tetrahidrobenzopirano [5,4, 3—cde] benzopiran-5-10 diona]",54%,significantly reduce,not effective,90%,modulate this behavior in a significant way,,,,,
c1cnc2cc3c(cc2n1)[C@@H]1CNC[C@H]3C1 [varenicline],,,,,,fall smoking again,quit smoking in the second month of treatment,less anxiety,increased anxiety,high (The Smokers with 6 or 7 points suffer high physical dependence)
